# Reference: publication PMC9653409, “Generative deep learning enables the discovery of a potent and selective RIPK1 inhibitor” (Nature Communications, 2022)
# Legend:
# Test in all cases: Kinase inhibitory activity profiling of RI-962@10 µM (406 kinases, Eurofins)
# Assay type in all cases: biochemical
# [1] = target: panel of human kinases (kinase named in endpoint) (Homo sapiens, UniProt O15264); details: 10 µM; read-out: Activity (%), SAPK4(h)
# Method in brief: (§1)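 Radiometric filter-binding kinase assays: enzyme preincubated 15 min with compound in 8 mM MOPS pH 7.0, 0.2 mM EDTA, 250 μM peptide substrate, 10 mM magnesium acetate, 10 μM [γ-33P]-ATP. Reaction started with Mg/ATP, run 40 min at room temperature, stopped with phosphoric acid; 33P incorporation read by scintillation counting. Other kinases by similar protocols.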
# [2] = target: panel of human kinases (kinase named in endpoint) (Homo sapiens, UniProt O43781); details: 10 µM; read-out: Activity (%), DYRK3(h)
# Method in brief: as §1
# [3] = target: panel of human kinases (kinase named in endpoint) (Homo sapiens, UniProt O75716); details: 10 µM; read-out: Activity (%), STK16(h)
# Method in brief: as §1
# [4] = target: panel of human kinases (kinase named in endpoint) (Homo sapiens, UniProt O75914); details: 10 µM; read-out: Activity (%), PAK3(h)
# Method in brief: as §1
# [5] = target: panel of human kinases (kinase named in endpoint) (Homo sapiens, UniProt O96017); details: 10 µM; read-out: Activity (%), CHK2(h)
# Method in brief: as §1
# [6] = target: panel of human kinases (kinase named in endpoint) (Homo sapiens, UniProt P06241); details: 10 µM; read-out: Activity (%), Fyn(h)
# Method in brief: as §1
# [7] = target: panel of human kinases (kinase named in endpoint) (Homo sapiens, UniProt P07333, Y969C); details: 10 µM; read-out: Activity (%), Fms(Y969C)(h)
# Method in brief: as §1
# [8] = target: panel of human kinases (kinase named in endpoint) (Homo sapiens, UniProt P20794); details: 10 µM; read-out: Activity (%), MAK(h)
# Method in brief: as §1
# [9] = target: panel of human kinases (kinase named in endpoint) (Homo sapiens, UniProt P24723); details: 10 µM; read-out: Activity (%), PKCη(h)
# Method in brief: as §1
# [10] = target: panel of human kinases (kinase named in endpoint) (Homo sapiens, UniProt P29322); details: 10 µM; read-out: Activity (%), EphA8(h)
# Method in brief: as §1
# [11] = target: panel of human kinases (kinase named in endpoint) (Homo sapiens, UniProt P30291); details: 10 µM; read-out: Activity (%), Wee1(h)
# Method in brief: as §1
# [12] = target: panel of human kinases (kinase named in endpoint) (Homo sapiens, UniProt P35626); details: 10 µM; read-out: Activity (%), GRK3(h)
# Method in brief: as §1
# [13] = target: panel of human kinases (kinase named in endpoint) (Homo sapiens, UniProt P42336, H1047R); details: 10 µM; read-out: Activity (%), PI3 Kinase (p110a(H1047R)/p85a)(h)
# Method in brief: as §1
# [14] = target: panel of human kinases (kinase named in endpoint) (Homo sapiens, UniProt P49840); details: 10 µM; read-out: Activity (%), GSK3α(h)
# Method in brief: as §1
# [15] = target: panel of human kinases (kinase named in endpoint) (Homo sapiens, UniProt P53350); details: 10 µM; read-out: Activity (%), Plk1(h)
# Method in brief: as §1
# [16] = target: panel of human kinases (kinase named in endpoint) (Homo sapiens, UniProt Q00537); details: 10 µM; read-out: Activity (%), CDK17/cyclinY(h)
# Method in brief: as §1
# [17] = target: panel of human kinases (kinase named in endpoint) (Homo sapiens, UniProt Q13188); details: 10 µM; read-out: Activity (%), MST2(h)
# Method in brief: as §1
# [18] = target: panel of human kinases (kinase named in endpoint) (Homo sapiens, UniProt Q13555); details: 10 µM; read-out: Activity (%), CaMKIIγ(h)
# Method in brief: as §1
# [19] = target: panel of human kinases (kinase named in endpoint) (Homo sapiens, UniProt Q13873); details: 10 µM; read-out: Activity (%), BMPR2(h)
# Method in brief: as §1
# [20] = target: panel of human kinases (kinase named in endpoint) (Homo sapiens, UniProt Q14004); details: read-out: Activity (%), CDK13/cyclinK(h)
# Method in brief: as §1
# [21] = target: panel of human kinases (kinase named in endpoint) (Homo sapiens, UniProt Q14289); details: 10 µM; read-out: Activity (%), Pyk2(h)
# Method in brief: as §1
# [22] = target: panel of human kinases (kinase named in endpoint) (Homo sapiens, UniProt Q6PHR2); details: 10 µM; read-out: Activity (%), ULK3(h)
# Method in brief: as §1
# [23] = target: panel of human kinases (kinase named in endpoint) (Homo sapiens, UniProt Q7KZI7); details: 10 µM; read-out: Activity (%), PAR-1Bα(h)
# Method in brief: as §1
# [24] = target: panel of human kinases (kinase named in endpoint) (Homo sapiens, UniProt Q92519); details: 10 µM; read-out: Activity (%), TRB2(h)
# Method in brief: as §1
# [25] = tested on: panel of human kinases (kinase named in endpoint); details: 10 µM
# Method in brief: as §1
# panel of human kinases (kinase named in endpoint) (Homo sapiens, UniProt P07333, Y969C), sequence (P07333 20-972 Y969C): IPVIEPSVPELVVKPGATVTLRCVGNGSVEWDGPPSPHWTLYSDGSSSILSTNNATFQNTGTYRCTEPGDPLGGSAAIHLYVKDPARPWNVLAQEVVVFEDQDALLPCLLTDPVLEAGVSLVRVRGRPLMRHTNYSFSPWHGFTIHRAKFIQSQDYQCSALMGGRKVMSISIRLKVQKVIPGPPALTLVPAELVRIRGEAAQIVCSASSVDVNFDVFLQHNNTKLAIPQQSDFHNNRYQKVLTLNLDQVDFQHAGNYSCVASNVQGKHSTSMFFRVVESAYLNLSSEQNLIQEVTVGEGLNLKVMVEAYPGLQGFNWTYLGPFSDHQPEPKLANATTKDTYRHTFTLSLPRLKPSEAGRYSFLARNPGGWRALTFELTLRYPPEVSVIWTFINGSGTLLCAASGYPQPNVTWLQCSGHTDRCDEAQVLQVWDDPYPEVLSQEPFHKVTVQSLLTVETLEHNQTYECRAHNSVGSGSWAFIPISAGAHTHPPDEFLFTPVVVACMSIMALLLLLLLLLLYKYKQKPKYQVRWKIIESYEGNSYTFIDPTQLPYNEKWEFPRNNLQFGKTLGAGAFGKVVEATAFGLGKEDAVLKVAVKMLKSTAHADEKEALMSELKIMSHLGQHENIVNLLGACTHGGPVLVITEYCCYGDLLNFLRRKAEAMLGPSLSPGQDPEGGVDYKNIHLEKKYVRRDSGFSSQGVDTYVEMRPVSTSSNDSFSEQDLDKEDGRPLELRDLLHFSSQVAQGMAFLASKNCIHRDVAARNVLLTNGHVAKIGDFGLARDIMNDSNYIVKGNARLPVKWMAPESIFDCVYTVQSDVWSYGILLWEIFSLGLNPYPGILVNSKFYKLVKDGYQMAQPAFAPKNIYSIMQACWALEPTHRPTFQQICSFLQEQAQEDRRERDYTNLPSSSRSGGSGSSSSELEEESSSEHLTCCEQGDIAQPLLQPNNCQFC
# panel of human kinases (kinase named in endpoint) (Homo sapiens, UniProt Q13873), sequence (Q13873 27-1038): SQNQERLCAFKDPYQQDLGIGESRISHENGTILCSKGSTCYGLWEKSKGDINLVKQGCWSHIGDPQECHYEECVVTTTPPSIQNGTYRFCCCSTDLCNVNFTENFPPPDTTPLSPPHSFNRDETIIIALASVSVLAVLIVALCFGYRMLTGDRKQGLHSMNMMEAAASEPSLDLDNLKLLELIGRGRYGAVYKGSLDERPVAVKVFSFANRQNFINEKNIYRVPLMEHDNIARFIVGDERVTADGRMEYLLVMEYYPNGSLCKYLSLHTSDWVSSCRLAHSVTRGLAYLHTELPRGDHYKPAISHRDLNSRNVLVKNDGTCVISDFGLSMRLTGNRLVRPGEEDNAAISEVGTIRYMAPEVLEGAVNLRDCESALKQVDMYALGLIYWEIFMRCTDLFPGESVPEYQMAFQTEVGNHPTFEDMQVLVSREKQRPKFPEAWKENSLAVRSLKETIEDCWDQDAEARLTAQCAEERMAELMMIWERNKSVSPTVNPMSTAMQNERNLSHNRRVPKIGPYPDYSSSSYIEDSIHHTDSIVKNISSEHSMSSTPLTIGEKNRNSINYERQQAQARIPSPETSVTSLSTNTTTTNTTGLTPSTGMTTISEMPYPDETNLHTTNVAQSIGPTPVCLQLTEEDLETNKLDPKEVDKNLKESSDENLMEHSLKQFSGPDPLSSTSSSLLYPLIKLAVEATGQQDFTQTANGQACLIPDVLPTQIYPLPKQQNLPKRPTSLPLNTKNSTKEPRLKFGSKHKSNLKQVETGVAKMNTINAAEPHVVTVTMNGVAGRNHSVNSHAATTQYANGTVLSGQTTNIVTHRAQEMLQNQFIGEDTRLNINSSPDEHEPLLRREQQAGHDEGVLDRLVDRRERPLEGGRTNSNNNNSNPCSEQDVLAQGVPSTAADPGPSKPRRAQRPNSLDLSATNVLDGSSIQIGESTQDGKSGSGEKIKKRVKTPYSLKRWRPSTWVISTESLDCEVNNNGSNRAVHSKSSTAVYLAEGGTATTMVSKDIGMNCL
# panel of human kinases (kinase named in endpoint) (Homo sapiens, UniProt Q14289), sequence (Q14289 whole entry): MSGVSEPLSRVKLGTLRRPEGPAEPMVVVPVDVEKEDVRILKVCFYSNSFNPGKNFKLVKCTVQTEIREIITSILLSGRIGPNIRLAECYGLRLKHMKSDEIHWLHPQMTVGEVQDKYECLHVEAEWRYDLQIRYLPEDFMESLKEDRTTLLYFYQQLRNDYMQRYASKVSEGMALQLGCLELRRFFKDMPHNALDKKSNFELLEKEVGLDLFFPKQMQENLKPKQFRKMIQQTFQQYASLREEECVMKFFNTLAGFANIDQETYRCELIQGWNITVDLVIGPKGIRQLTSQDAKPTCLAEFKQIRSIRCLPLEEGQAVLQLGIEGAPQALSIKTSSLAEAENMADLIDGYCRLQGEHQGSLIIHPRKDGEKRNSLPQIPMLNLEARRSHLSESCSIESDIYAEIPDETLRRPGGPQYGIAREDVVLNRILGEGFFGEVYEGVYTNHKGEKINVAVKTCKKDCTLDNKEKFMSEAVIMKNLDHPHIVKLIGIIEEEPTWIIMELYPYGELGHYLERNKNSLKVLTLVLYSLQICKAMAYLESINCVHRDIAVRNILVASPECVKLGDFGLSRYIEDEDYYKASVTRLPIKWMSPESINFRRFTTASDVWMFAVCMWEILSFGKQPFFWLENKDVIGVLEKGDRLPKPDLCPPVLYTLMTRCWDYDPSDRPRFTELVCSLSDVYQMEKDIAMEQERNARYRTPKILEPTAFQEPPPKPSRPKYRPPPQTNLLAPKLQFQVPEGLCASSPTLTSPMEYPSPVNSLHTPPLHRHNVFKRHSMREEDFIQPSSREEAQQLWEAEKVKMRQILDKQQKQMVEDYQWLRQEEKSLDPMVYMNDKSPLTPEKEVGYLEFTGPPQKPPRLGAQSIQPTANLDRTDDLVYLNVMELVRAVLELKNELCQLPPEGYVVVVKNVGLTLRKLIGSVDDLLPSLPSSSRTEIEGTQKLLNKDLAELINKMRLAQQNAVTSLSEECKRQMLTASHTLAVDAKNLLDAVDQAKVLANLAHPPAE
# panel of human kinases (kinase named in endpoint) (Homo sapiens, UniProt Q13188), sequence (Q13188 whole entry): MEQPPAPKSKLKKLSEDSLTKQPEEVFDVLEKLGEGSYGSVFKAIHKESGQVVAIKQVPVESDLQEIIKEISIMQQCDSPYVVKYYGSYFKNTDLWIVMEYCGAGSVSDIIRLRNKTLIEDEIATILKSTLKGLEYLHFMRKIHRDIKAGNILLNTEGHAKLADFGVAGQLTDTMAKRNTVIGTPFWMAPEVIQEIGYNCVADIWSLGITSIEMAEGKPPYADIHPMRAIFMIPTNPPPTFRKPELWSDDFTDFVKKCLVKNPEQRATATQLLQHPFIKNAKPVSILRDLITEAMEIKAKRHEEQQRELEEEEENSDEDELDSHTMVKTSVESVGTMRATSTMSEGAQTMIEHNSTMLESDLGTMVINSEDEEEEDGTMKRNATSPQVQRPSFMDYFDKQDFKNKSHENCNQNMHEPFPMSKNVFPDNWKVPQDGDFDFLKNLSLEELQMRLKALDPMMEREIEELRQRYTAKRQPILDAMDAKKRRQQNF
# panel of human kinases (kinase named in endpoint) (Homo sapiens, UniProt P29322), sequence (P29322 28-1005): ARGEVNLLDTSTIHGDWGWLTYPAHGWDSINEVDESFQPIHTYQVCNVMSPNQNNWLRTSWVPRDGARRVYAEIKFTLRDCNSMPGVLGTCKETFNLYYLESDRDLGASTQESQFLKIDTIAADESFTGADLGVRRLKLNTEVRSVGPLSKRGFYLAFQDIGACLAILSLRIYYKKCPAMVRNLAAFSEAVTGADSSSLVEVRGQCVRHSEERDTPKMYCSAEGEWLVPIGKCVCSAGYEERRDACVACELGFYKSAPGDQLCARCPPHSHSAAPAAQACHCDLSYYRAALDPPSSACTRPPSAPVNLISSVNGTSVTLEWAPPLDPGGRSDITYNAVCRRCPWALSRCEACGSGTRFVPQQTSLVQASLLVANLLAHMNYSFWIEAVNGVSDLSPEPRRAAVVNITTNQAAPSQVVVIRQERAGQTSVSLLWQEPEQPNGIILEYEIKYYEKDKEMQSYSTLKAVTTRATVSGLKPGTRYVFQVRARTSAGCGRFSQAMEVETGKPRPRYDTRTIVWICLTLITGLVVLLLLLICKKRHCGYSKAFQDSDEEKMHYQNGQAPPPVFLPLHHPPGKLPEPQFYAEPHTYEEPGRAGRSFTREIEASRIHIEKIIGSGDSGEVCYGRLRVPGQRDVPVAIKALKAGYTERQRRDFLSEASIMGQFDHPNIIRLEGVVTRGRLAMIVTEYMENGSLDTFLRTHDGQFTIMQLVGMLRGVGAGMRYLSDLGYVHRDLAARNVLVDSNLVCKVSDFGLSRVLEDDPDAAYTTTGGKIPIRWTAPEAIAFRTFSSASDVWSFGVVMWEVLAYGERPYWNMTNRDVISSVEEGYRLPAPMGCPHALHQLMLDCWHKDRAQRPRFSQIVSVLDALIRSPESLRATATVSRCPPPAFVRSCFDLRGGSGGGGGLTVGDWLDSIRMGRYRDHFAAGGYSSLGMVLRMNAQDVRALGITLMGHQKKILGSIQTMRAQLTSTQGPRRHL
# panel of human kinases (kinase named in endpoint) (Homo sapiens, UniProt O43781), sequence (O43781 whole entry): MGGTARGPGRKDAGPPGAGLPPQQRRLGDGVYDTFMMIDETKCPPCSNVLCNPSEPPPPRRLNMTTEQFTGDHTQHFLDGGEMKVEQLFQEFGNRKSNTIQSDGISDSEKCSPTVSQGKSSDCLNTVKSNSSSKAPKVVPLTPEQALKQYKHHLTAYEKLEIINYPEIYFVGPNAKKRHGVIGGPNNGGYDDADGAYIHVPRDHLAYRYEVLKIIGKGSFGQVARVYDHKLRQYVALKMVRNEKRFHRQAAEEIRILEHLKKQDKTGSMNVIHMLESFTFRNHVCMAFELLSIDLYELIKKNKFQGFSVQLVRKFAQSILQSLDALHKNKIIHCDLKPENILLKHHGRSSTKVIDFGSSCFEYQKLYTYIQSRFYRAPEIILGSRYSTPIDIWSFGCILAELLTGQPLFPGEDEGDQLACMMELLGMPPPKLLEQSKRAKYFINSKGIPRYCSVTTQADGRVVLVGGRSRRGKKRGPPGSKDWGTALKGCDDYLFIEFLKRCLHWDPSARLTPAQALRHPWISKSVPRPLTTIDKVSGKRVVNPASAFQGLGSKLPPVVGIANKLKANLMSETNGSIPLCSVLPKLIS
smiles,measurement,setting,value
CC(C)C(=O)Nc1nc2cc(-c3ccc4c(c3)c(C(=O)NC(C)c3ccccc3)cn4C)ccn2n1 (centres unmarked) [RI-962],activity at 10 µM,[1],91%
same,activity at 10 µM,[2],83%
same,activity at 10 µM,[3],100%
same,activity at 10 µM,[4],77%
same,activity at 10 µM,[5],98%
same,activity at 10 µM,[6],107%
same,activity at 10 µM,[7],73%
same,activity at 10 µM,[8],126%
same,activity at 10 µM,[9],99%
same,activity at 10 µM,[10],88%
same,activity at 10 µM,[11],92%
same,activity at 10 µM,[12],92%
same,activity at 10 µM,[13],99%
same,activity at 10 µM,[14],112%
same,activity at 10 µM,[15],122%
same,activity at 10 µM,[16],124%
same,activity at 10 µM,[17],64%
same,activity at 10 µM,[18],93%
same,activity at 10 µM,[19],105%
same,activity at 10 µM,[20],100%
same,activity at 10 µM,[21],106%
same,activity at 10 µM,[22],68%
same,activity at 10 µM,[23],103%
same,activity at 10 µM,[24],91%
same,"Activity (%), ACTR2(h)",[25],81%
same,"Activity (%), CK1(y)",[25],100%
same,"Activity (%), MAPK1(h)",[25],94%
same,"Activity (%), PKCβII(h)",[25],87%
same,"Activity (%), PKG1β(h)",[25],98%
